Data on six molecules can be found in the supplement of paper PMC11061612.

SMILES strings stand for the structures.

In one experiment the test system is ACHN (Kidney Carcinoma). Put plainly: Bliss excess, mean over the matrix (fraction); higher = more synergy. An outline of the steps: (§1)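 Cell lines grown in DMEM/F12 or RPMI with 10% FBS were plated in 1536-well plates and held 24 hours at 37°C, 5% CO2 before 72 hours of exposure to two-drug dose matrices, with DMSO typically at 0.2%. CellTiter-Glo 2.0 luminescence gave viability, which was converted to inhibition. Vehicle wells were set to 0 and blank wells to 1. Combination Emax is the second-highest inhibition in the matrix, and Bliss excess is the observed combination effect minus the expected EA + EB − EA·EB, where EA and EB are the single-agent effects.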

For experiment [1], the system named is Ca9-22 (Head and Neck Carcinoma). Described as above. In outline:
as §1

Experiment [2] has as its system Caov-4 (Ovarian Carcinoma). Described as above. An outline of the steps:
as §1

Experiment [3] relates to EoL-1-cell (Acute Myeloid Leukemia). The description is as above. In outline: as §1
Experiment [4] concerns HGC-27 (Gastric Carcinoma). The description is as above. An outline of the steps:
as §1

The subject of experiment [5] is HOP-62 (Lung Adenocarcinoma). The experiment is described as above. In outline:
as §1

Experiment [6] deals with KMOE-2 (Acute Myeloid Leukemia). The experiment is described as above. An outline of the steps: as §1
Experiment [7] relates to MIA-PaCa-2 (Pancreatic Carcinoma). Described as above. In outline:
as §1

In another experiment the test system is NB69 (Neuroblastoma). The description is as above. In outline:
as §1

For experiment [8], the system named is NCI-H358 (Lung Adenocarcinoma). Described as above. In outline: as §1
In experiment [9] the test system is NEC8 (Other Solid Carcinomas). The experiment is described as above. In outline:
as §1

The test system of experiment [10] is NUGC-3 (Gastric Carcinoma). The experiment is described as above. In outline:
as §1

The test system of experiment [11] is PANC-04-03 (Pancreatic Carcinoma). Described as above. In outline: as §1
Another experiment relates to PWR-1E (Non-Cancerous). Described as above. In outline:
as §1

The subject of experiment [12] is SU8686 (Pancreatic Carcinoma). The description is as above. An outline of the steps: as §1
Experiment [13] relates to TE-1 (Esophageal Squamous Cell Carcinoma). The experiment is described as above. An outline of the steps:
as §1

In the next experiment the test system is TK10 (Kidney Carcinoma). The description is as above. In outline:
as §1

In experiment [14] the test system is VA-ES-BJ (Other Solid Carcinomas). The description is as above. In outline: as §1
Another experiment deals with YH-13 (Glioblastoma). The description is as above. An outline of the steps:
as §1

Experiment [15] has as its system SW13 (Other Solid Carcinomas). Put plainly: combination Emax (second highest fraction inhibited in the dose matrix, 72 h); higher = more inhibition; extreme values may be limits of the assay. In outline:
as §1
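For Bliss excess, mean over the matrix in this document: after 72 h of two-drug dosing.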

As to `CCc1c2c(nc3ccc(O)cc13)-c1cc3c(c(=O)n1C2)COC(=O)[C@]3(O)CC` [SN-38] + CN(C)CCCOc1ccc(-c2ccc3ncc4c(c3c2)n(C2CCOCC2)c(=O)n4C)cn1 [AZD0156] (first compound max 0.3 µM, 7x7, partner max 1 µM), the Bliss excess with ACHN (Kidney Carcinoma) is -0.0134; in experiment [1] it was 0.0332; in [2] it was 0.0268; in [3], 0.098; in experiment [4], 0.077; in experiment [5] it was 0.0182. The Bliss excess in experiment [6] was -0.0089; in [7], 0.0279; in the experiment on NB69 (Neuroblastoma), 0.0106; in [8], 0.0282; in [9] it was -0.0228; in [10] it was 0.0085. The Bliss excess was -0.0226 in [11]; 0.0948 in the experiment on PWR-1E (Non-Cancerous); -0.0327 in [12]; 0.0182 in [13]; 0.028 in the experiment with TK10 (Kidney Carcinoma); -0.0165 in experiment [14]. Besides, in the experiment with YH-13 (Glioblastoma), the Bliss excess was -0.0036. In addition, the “combination Emax” value in [15] came to 0.988.

Consider `Cn1cnc2c(F)c(Nc3ccc(Br)cc3Cl)c(C(=O)NOCCO)cc21` [Selumetinib] + C=CCn1c(=O)c2cnc(Nc3ccc(N4CCN(C)CC4)cc3)nc2n1-c1cccc(C(C)(C)O)n1 [AZD1775] (first compound max 10 µM, partner max 1 µM), for which the Bliss excess is -0.0527 with ACHN (Kidney Carcinoma); 0.0321 in [1]; -0.0097 in experiment [2]; -0.053 in experiment [3]; -0.052 in [4]; -0.0468 in [5]. Besides, the Bliss excess in [6] is 0.0111; in experiment [7] it was 0.0552; in the experiment on NB69 (Neuroblastoma), -0.0004; in [8] it was -0.0471; in experiment [9], 0.0185; in experiment [10] it was -0.0757. Moreover, the Bliss excess in experiment [11] was -0.0351; in the experiment with PWR-1E (Non-Cancerous), -0.0663; in experiment [12] it was -0.0089; in experiment [13], -0.0277; in the experiment on TK10 (Kidney Carcinoma), -0.0412; in experiment [14] it was -0.112. Also, the Bliss excess in the experiment with YH-13 (Glioblastoma) is -0.0489. The “combination Emax” value in experiment [15] came to 0.361.

As to `Cn1cnc2c(F)c(Nc3ccc(Br)cc3Cl)c(C(=O)NOCCO)cc21` [Selumetinib] + CC(C)n1c(=O)n(C)c2cnc3cc(F)c(-c4ccc(OCCCN5CCCCC5)nc4)cc3c21 [AZD1390] (first compound max 10 µM, 7x7, partner max 0.3 µM), the Bliss excess with ACHN (Kidney Carcinoma) is 0.0389; in [1], 0.0337; in [2], -0.0382; in experiment [3], 0.0004; in experiment [4], -0.0129; in experiment [5], -0.0451. Further, the Bliss excess in [6] was 0.0296; in [7], -0.0287; with NB69 (Neuroblastoma), -0.0538; in [8], -0.03; in experiment [9] it was -0.0268; in experiment [10] it was -0.0347. In addition, the Bliss excess in experiment [11] was -0.0287; in the experiment on PWR-1E (Non-Cancerous), -0.0467; in [12], -0.0255; in experiment [13] it was 0.0347; in the experiment with TK10 (Kidney Carcinoma), -0.0336; in [14], -0.0471. Also, the Bliss excess in the experiment with YH-13 (Glioblastoma) was -0.0342. The “combination Emax” value in experiment [15] came to 0.401.

Regarding `Cn1cnc2c(F)c(Nc3ccc(Br)cc3Cl)c(C(=O)NOCCO)cc21` [Selumetinib] + CCN(CCO)CCCOc1ccc2c(Nc3cc(CC(=O)Nc4cccc(F)c4)[nH]n3)ncnc2c1 [AZD2811] (first compound max 10 µM, 7x7, partner max 1 µM), the Bliss excess in the experiment on ACHN (Kidney Carcinoma) is 0.0086; in [1], 0.0241; in [2], -0.0643; in experiment [3] it was 0.0206; in experiment [4] it was -0.0515; in experiment [5] it was -0.0772. For the same molecule, the Bliss excess in experiment [6] was -0.0124; in experiment [7] it was 0.0585; in the experiment with NB69 (Neuroblastoma) it was -0.0155; in experiment [8], -0.0743; in [9] it was -0.0166; in experiment [10], 0.0179. For the same molecule, the Bliss excess was -0.0339 in [11]; -0.0175 in the experiment on PWR-1E (Non-Cancerous); -0.0179 in [12]; 0.0378 in experiment [13]; -0.0589 in the experiment with TK10 (Kidney Carcinoma); -0.0263 in [14]. Moreover, in the experiment with YH-13 (Glioblastoma), the Bliss excess was -0.14. The “combination Emax” value in experiment [15] was found to be 0.615.

With `Cn1cnc2c(F)c(Nc3ccc(Br)cc3Cl)c(C(=O)NOCCO)cc21` [Selumetinib] + C[C@@H]1COCCN1C2=NC(=NC(=C2)C3(CC3)[S@](=N)(=O)C)C4=C5C=CNC5=NC=C4 [AZD6738] (first compound max 10 µM, 7x7, partner max 10 µM), the Bliss excess is -0.0415 in the experiment on ACHN (Kidney Carcinoma); -0.0197 in experiment [1]; -0.0221 in [2]; 0.0058 in experiment [3]; -0.0513 in [4]; -0.0175 in [5]. Further, the Bliss excess is 0.0544 in experiment [6]; 0.0499 in experiment [7]; -0.0029 in the experiment with NB69 (Neuroblastoma); -0.0816 in [8]; -0.0014 in [9]; 0.0428 in [10]. Moreover, the Bliss excess is 0.0023 in experiment [11]; -0.0381 in the experiment with PWR-1E (Non-Cancerous); -0.0168 in experiment [12]; -0.0229 in experiment [13]; -0.0373 with TK10 (Kidney Carcinoma); -0.0714 in experiment [14]. In the experiment with YH-13 (Glioblastoma), the Bliss excess was -0.0485. The “combination Emax” value in experiment [15] came to 0.628.

As for `CC(=O)Nc1cccc(-n2c(=O)n(C3CC3)c(=O)c3c(Nc4ccc(I)cc4F)n(C)c(=O)c(C)c32)c1` [Trametinib] + Cc1nc(-c2cn3c(n2)-c2ccc(-c4cnn(C(C)(C)C(N)=O)c4)cc2OCC3)n(C(C)C)n1 [Taselisib] (first compound max 1 µM, 7x7, partner max 10 µM), the Bliss excess was 0.132 in the experiment with ACHN (Kidney Carcinoma); 0.131 in experiment [1]; 0.0567 in experiment [2]; 0.232 in experiment [3]; -0.062 in [4]; 0.0978 in experiment [5]. For the same molecule, the Bliss excess turned out to be 0.066 in [6]; 0.148 in experiment [7]; 0.0304 in the experiment on NB69 (Neuroblastoma); 0.095 in experiment [8]; 0.112 in experiment [9]; 0.104 in [10]. In addition, the Bliss excess in experiment [11] is 0.101; with PWR-1E (Non-Cancerous), 0.121; in experiment [12], 0.094; in experiment [13] it was 0.127; in the experiment on TK10 (Kidney Carcinoma), 0.0739; in experiment [14], -0.0328. The Bliss excess with YH-13 (Glioblastoma) worked out at 0.0704. Also, the “combination Emax” value in [15] is 0.929.
